In this test the test system is human sense of taste. The test can be described thus: Sweetness measured by human sense of taste (20 trained subjects, minimum concentration at which sweetness is first sensed). The class given is in vivo. Particulars: for Multiples of increased sweetness to minor-type brazzein: relative to minor-type brazzein; for Minimum stimulation level in which one senses sweetness for first time: 20 trained subjects; for Sweetness ratios of sucrose (1 g/100 ml) to primary brazzein variants (minor-type brazzein: 2000) / Sweetness ratios of sucrose (1 g/100 ml) to brazzein multi-variants: relative to 1 g/100 ml sucrose threshold. As to the method: Since the recombinant brazzein according to the present invention is not a sucrose-based compound having a cyclic ring, the sweetness of the recombinant brazzein was not measured using a saccharometer. Therefore, the activity of the recombinant brazzein was measured using the human sense of taste. Sugar content measurement was performed on 20 subjects who were trained to feel substantially the same minimum concentration of sucrose in which they could sense sweetness using a sucrose solution. That is, a concentration of each brazzein variant in which the subjects could sense sweetness for the first time was measured. Also, a sweetness ratio of the sucrose solution to the wild-type brazzein was 1 g/100 ml, which was a minimum stimulation level in which the subjects could sense sweetness. Also, a sweetness ratio of the minor-type brazzein protein to the wild-type brazzein was 500 μg/100 ml, which was a minimum stimulation level in which the subjects could sense sweetness. Therefore, the sweetness was calculated using the sweetness ratios (That is, 1/0.0005=2000 for the minor-type brazzein).
Also, the brazzein multi-variants were measured for activity (sweetness) in the same manner as in Example 3-1.

`OC[C@H]1O[C@@](CO)(O[C@H]2O[C@H](CO)[C@@H](O)[C@H](O)[C@H]2O)[C@@H](O)[C@@H]1O` [sucrose, reference compound]: the “Minimum stimulation level in which the subjects could sense sweetness” value (sucrose solution) worked out at 1 g/100 ml.

“E35A: primary brazzein variant: Glu at position 35 of minor-type brazzein substituted with Ala (DKCKKVYENYPVSKCQLANQCNYDCKLRKHARSGACFYDEKRNLQCICDYCEY; Brazzein(E35A)) [Brazzein E35A]”: the “Sweetness ratios of sucrose (1 g/100 ml) to primary brazzein variants (minor-type brazzein: 2000)” value (shortened to “Sweetness ratios … (minor-type brazzein: 2000)”) was found to be 100. Also, under “primary brazzein variants”, the “Multiples of increased sweetness to minor-type brazzein” value (“Multiples of increased sweetness” for short) was determined as 0.05 and the “Minimum stimulation level in which one senses sweetness for first time” value (shortened to “Minimum stimulation level … for first time”) is recorded as 10,000 μg/100 ml.

For “E35D_E40A: secondary brazzein variant of minor-type brazzein with substitutions E35D and E40A (DKCKKVYENYPVSKCQLANQCNYDCKLRKHAKSGDCFYDAKRNLQCICDYCEY; Brazzein(E35D_E40A)) [Brazzein E35D_E40A]”, the “Sweetness ratios of sucrose (1 g/100 ml) to brazzein multi-variants” value (from here on “Sweetness ratios … to brazzein multi-variants”) is listed as 10,000. The “Multiples of increased sweetness” value (brazzein multi-variants) is on record as 5.

On to “E35D_E40D: secondary brazzein variant of minor-type brazzein with substitutions E35D and E40D (DKCKKVYENYPVSKCQLANQCNYDCKLRKHAKSGDCFYDDKRNLQCICDYCEY; Brazzein(E35D_E40D)) [Brazzein E35D_E40D]”, for which the “Sweetness ratios … to brazzein multi-variants” value is on record as 10,000. Further, the “Multiples of increased sweetness” value (brazzein multi-variants) is 5.

For “E35D_E40K: secondary brazzein variant of minor-type brazzein with substitutions E35D and E40K (DKCKKVYENYPVSKCQLANQCNYDCKLRKHAKSGDCFYDKKRNLQCICDYCEY; Brazzein(E35D_E40K)) [Brazzein E35D_E40K]”, the “Sweetness ratios … to brazzein multi-variants” value was 8,000. The “Multiples of increased sweetness” value (brazzein multi-variants) is listed as 4.

As to “E35D_E40R: secondary brazzein variant of minor-type brazzein with substitutions E35D and E40R (DKCKKVYENYPVSKCQLANQCNYDCKLRKHAKSGDCFYDRKRNLQCICDYCEY; Brazzein(E35D_E40R)) [Brazzein E35D_E40R]”, the “Sweetness ratios … to brazzein multi-variants” value is 12,000. For the same compound, where the note is “brazzein multi-variants”, the “Multiples of increased sweetness” value came out at 6.

As for “E35H: primary brazzein variant: Glu at position 35 of minor-type brazzein substituted with His (DKCKKVYENYPVSKCQLANQCNYDCKLRKHARSGHCFYDEKRNLQCICDYCEY; Brazzein(E35H)) [Brazzein E35H]”, the “Sweetness ratios … (minor-type brazzein: 2000)” value is reported as 167. For the same compound, for the setting “primary brazzein variants”, the “Multiples of increased sweetness” value is 0.08 and the “Minimum stimulation level … for first time” value is given as 6,000 μg/100 ml.

As for “E35K: primary brazzein variant: Glu at position 35 of minor-type brazzein substituted with Lys (DKCKKVYENYPVSKCQLANQCNYDCKLRKHARSGKCFYDEKRNLQCICDYCEY; Brazzein(E35K)) [Brazzein E35K]”, the “Sweetness ratios … (minor-type brazzein: 2000)” value amounted to 167. Also, under “primary brazzein variants”, the “Multiples of increased sweetness” value turned out to be 0.08 and the “Minimum stimulation level … for first time” value is 6,000 μg/100 ml.

“E35R: primary brazzein variant: Glu at position 35 of minor-type brazzein substituted with Arg (DKCKKVYENYPVSKCQLANQCNYDCKLRKHARSGRCFYDEKRNLQCICDYCEY; Brazzein(E35R)) [Brazzein E35R]”: the “Sweetness ratios … (minor-type brazzein: 2000)” value was determined as 167. For the setting “primary brazzein variants”, the “Multiples of increased sweetness” value turned out to be 0.08 and the “Minimum stimulation level … for first time” value was 6,000 μg/100 ml.

For “E40H: primary brazzein variant: Glu at position 40 of minor-type brazzein substituted with His (DKCKKVYENYPVSKCQLANQCNYDCKLRKHARSGECFYDHKRNLQCICDYCEY; Brazzein(E40H)) [Brazzein E40H]”, the “Sweetness ratios … (minor-type brazzein: 2000)” value is reported as 4,000. Where the note is “primary brazzein variants”, the “Multiples of increased sweetness” value is 2 and the “Minimum stimulation level … for first time” value was determined as 250 μg/100 ml.

For “H30A: primary brazzein variant: His at position 30 of minor-type brazzein substituted with Ala (DKCKKVYENYPVSKCQLANQCNYDCKLRKAARSGECFYDEKRNLQCICDYCEY; Brazzein(H30A)) [Brazzein H30A]”, the “Sweetness ratios … (minor-type brazzein: 2000)” value came to 167. Where the note is “primary brazzein variants”, the “Multiples of increased sweetness” value came to 0.08 and the “Minimum stimulation level … for first time” value is listed as 6,000 μg/100 ml.

“H30D: primary brazzein variant: His at position 30 of minor-type brazzein substituted with Asp (DKCKKVYENYPVSKCQLANQCNYDCKLRKDARSGECFYDEKRNLQCICDYCEY; Brazzein(H30D)) [Brazzein H30D]”: the “Sweetness ratios … (minor-type brazzein: 2000)” value was 334. Moreover, under “primary brazzein variants”, the “Multiples of increased sweetness” value came to 0.16 and the “Minimum stimulation level … for first time” value is recorded as 3,000 μg/100 ml.

As for “H30E: primary brazzein variant: His at position 30 of minor-type brazzein substituted with Glu (DKCKKVYENYPVSKCQLANQCNYDCKLRKEARSGECFYDEKRNLQCICDYCEY; Brazzein(H30E)) [Brazzein H30E]”, the “Sweetness ratios … (minor-type brazzein: 2000)” value is 334. Under “primary brazzein variants”, the “Multiples of increased sweetness” value amounted to 0.16 and the “Minimum stimulation level … for first time” value was 3,000 μg/100 ml.

With “H30K: primary brazzein variant: His at position 30 of minor-type brazzein substituted with Lys (DKCKKVYENYPVSKCQLANQCNYDCKLRKKARSGECFYDEKRNLQCICDYCEY; Brazzein(H30K)) [Brazzein H30K]”, the “Sweetness ratios … (minor-type brazzein: 2000)” value is given as 4,000. Besides, under “primary brazzein variants”, the “Multiples of increased sweetness” value is recorded as 2 and the “Minimum stimulation level … for first time” value amounted to 250 μg/100 ml.

For the compound “H30R_E40A: secondary brazzein variant of minor-type brazzein with substitutions H30R and E40A (DKCKKVYENYPVSKCQLANQCNYDCKLRKRAKSGECFYDAKRNLQCICDYCEY; Brazzein(H30R_E40A)) [Brazzein H30R_E40A]”, the “Sweetness ratios … to brazzein multi-variants” value was 8,000. Further, under “brazzein multi-variants”, the “Multiples of increased sweetness” value came to 4.

“H30R_E40D: secondary brazzein variant of minor-type brazzein with substitutions H30R and E40D (DKCKKVYENYPVSKCQLANQCNYDCKLRKRAKSGECFYDDKRNLQCICDYCEY; Brazzein(H30R_E40D)) [Brazzein H30R_E40D]”: the “Sweetness ratios … to brazzein multi-variants” value is recorded as 8,000. For the same compound, the “Multiples of increased sweetness” value (brazzein multi-variants) worked out at 4.

Turning to “H30R_E40K: secondary brazzein variant of minor-type brazzein with substitutions H30R and E40K (DKCKKVYENYPVSKCQLANQCNYDCKLRKRAKSGECFYDKKRNLQCICDYCEY; Brazzein(H30R_E40K)) [Brazzein H30R_E40K]”, the “Sweetness ratios … to brazzein multi-variants” value was 10,000. Further, where the note is “brazzein multi-variants”, the “Multiples of increased sweetness” value came to 5.

As to “H30R_E40R: secondary brazzein variant of minor-type brazzein with substitutions H30R and E40R (DKCKKVYENYPVSKCQLANQCNYDCKLRKRAKSGECFYDRKRNLQCICDYCEY; Brazzein(H30R_E40R)) [Brazzein H30R_E40R]”, the “Sweetness ratios … to brazzein multi-variants” value is given as 10,000. For the same compound, the “Multiples of increased sweetness” value (brazzein multi-variants) turned out to be 5.

For “K5A: primary brazzein variant: Lys at position 5 of minor-type brazzein substituted with Ala (DKCKAVYENYPVSKCQLANQCNYDCKLRKHARSGECFYDEKRNLQCICDYCEY; Brazzein(K5A)) [Brazzein K5A]”, the “Sweetness ratios … (minor-type brazzein: 2000)” value came out at 167. Moreover, under “primary brazzein variants”, the “Multiples of increased sweetness” value worked out at 0.08 and the “Minimum stimulation level … for first time” value is reported as 6,000 μg/100 ml.

As for “K5D: primary brazzein variant: Lys at position 5 of minor-type brazzein substituted with Asp (DKCKDVYENYPVSKCQLANQCNYDCKLRKHARSGECFYDEKRNLQCICDYCEY; Brazzein(K5D)) [Brazzein K5D]”, the “Sweetness ratios … (minor-type brazzein: 2000)” value turned out to be 167. For the same compound, for the setting “primary brazzein variants”, the “Multiples of increased sweetness” value is reported as 0.08 and the “Minimum stimulation level … for first time” value is on record as 6,000 μg/100 ml.

On to “K5E: primary brazzein variant: Lys at position 5 of minor-type brazzein substituted with Glu (DKCKEVYENYPVSKCQLANQCNYDCKLRKHARSGECFYDEKRNLQCICDYCEY; Brazzein(K5E)) [Brazzein K5E]”, for which the “Sweetness ratios … (minor-type brazzein: 2000)” value came to 167. In addition, under “primary brazzein variants”, the “Multiples of increased sweetness” value is listed as 0.08 and the “Minimum stimulation level … for first time” value was 6,000 μg/100 ml.

(Values after patent publication US8592181B2, “Brazzein variant having higher sweetness and method for preparing multi-variant” (Chung-Ang University Industry-Academy Cooperation Foundation, priority 2009, dated 2013).)
